{"source": "patent US20040023991A1", "about": "“Use of pyrazolo[4,3-d]pyrimidines” (priority 2000, published 2004)"}
{"smiles": "CCCc1nn(C)c2c(NCc3ccc(OC)c(Cl)c3)nc(CCC(=O)O)nc12", "note": "[Example 2, 3-[7-(3-chloro-4-methoxybenzylamino)-1-methyl-3-propyl-1H-pyrazolo[4,3-d]pyrimidin-5-yl]propionic acid]", "values": [{"measurement": "melting point", "value": 178, "unit": "°C"}]}
